Where a name gives a salt, the structure may show the parent alone.

As a reminder, the Ki is the equilibrium dissociation constant of an inhibitor or competing ligand from its target. A lower Ki goes with higher affinity.

The test deals with purified human Factor XIa (Homo sapiens (Human), UniProt P03951). Description: Factor XIa enzyme inhibition assay (chromogenic substrate S-2366). The following applies: substrate S-2366, pH 7.4. Type of test: biochemical. On the procedure: The effectiveness of compounds of the present invention as inhibitors of the coagulation factors XIa, VIIa, IXa, Xa, XIIa, plasma kallikrein or thrombin, can be determined using a relevant purified serine protease, respectively, and an appropriate synthetic substrate. The rate of hydrolysis of the chromogenic or fluorogenic substrate by the relevant serine protease was measured both in the absence and presence of compounds of the present invention. […] A decrease in the rate of absorbance or fluorescence change in the presence of inhibitor is indicative of enzyme inhibition. Such methods are known to one skilled in the art. The results of this assay are expressed as the inhibitory constant, Ki.
Sequence of purified human Factor XIa (P03951 388-625): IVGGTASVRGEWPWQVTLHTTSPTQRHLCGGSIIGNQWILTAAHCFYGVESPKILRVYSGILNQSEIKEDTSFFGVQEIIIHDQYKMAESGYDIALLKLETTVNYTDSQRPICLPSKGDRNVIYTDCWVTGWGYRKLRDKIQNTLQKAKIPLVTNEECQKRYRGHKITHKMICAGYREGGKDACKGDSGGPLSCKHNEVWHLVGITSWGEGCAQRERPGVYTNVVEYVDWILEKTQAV
Sequence of purified human Factor XIa (P03951 19-387 partner): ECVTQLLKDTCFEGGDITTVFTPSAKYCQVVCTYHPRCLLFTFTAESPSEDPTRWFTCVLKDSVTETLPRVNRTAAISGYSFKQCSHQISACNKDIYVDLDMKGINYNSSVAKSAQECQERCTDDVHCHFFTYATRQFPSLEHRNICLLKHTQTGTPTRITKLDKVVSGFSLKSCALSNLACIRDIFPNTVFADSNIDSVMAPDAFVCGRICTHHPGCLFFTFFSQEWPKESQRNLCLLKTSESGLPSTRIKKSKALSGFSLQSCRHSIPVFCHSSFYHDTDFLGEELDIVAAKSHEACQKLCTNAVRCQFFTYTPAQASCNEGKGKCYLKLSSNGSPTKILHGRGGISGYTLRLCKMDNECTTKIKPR
Factor XIa determinations were made in 50 mM HEPES buffer at pH 7.4 containing 145 mM NaCl, 5 mM KCl, and 0.1% PEG 8000 (polyethylene glycol; JT Baker or Fisher Scientific). Determinations were made using purified human Factor XIa at a final concentration of 75-200 pM (Haematologic Technologies) and the synthetic substrate S-2366 (pyroGlu-Pro-Arg-pNA; CHROMOGENIX® or AnaSpec) at a concentration of 0.0002-0.001 M.
The Michaelis constant, Km, for substrate hydrolysis by each protease, was determined at 25° C. using the method of Lineweaver and Burk. Values of Ki were determined by allowing the protease to react with the substrate in the presence of the inhibitor. Reactions were allowed to go for periods of 20-180 minutes (depending on the protease) and the velocities (rate of absorbance or fluorescence change versus time) were measured. The following relationships were used to calculate Ki values: (vo−vs)/vs=I/(Ki(1+S/Km)) for a competitive inhibitor with one binding site; or vs/vo=A+((B−A)/1+((IC50/(I)n))); and Ki=IC50/(1+S/Km) for a competitive inhibitor where: […]
In the case of `CN1CCN(c2cccc3c2CCN(C(=O)C2CC4(CCN(C(=N)N)CC4)C2)[C@@H]3C(=O)Nc2ccc(C(=O)O)cc2)C(=O)C1` [Example 18, (S)-4-(2-(7-carbamimidoyl-7-azaspiro[3.5]nonane-2-carbonyl)-5-(4-methyl-2-oxopiperazin-1-yl)-1,2,3,4-tetrahydroisoquinoline-1-carboxamido)benzoic acid, bis HCl Salt], the inhibition constant Ki is < 5 nM.

Turning to `COC1CCN(c2cccc3c2CCN(C(=O)C2CC4(CCNCC4)C2)C3C(=O)Nc2ccc(C(=O)O)cc2)CC1` (stereo not drawn) [Example 12, 4-(5-(4-methoxypiperidin-1-yl)-2-(7-azaspiro[3.5]nonane-2-carbonyl)-1,2,3,4-tetrahydroisoquinoline-1-carboxamido)benzoic acid, bis TFA Salt], the inhibitory constant (Ki) was found to be 190 nM. With `COC1CCN(c2cccc3c2CCN(C(=O)c2nc4c(s2)CN(C(=N)N)CC4)C3C(=O)Nc2ccc(C(=O)O)cc2)CC1` (stereo not drawn) [Example 5, 4-(2-(5-carbamimidoyl-4,5,6,7-tetrahydrothiazolo[5,4-c]pyridine-2-carbonyl)-5-(4-methoxypiperidin-1-yl)-1,2,3,4-tetrahydroisoquinoline-1-carboxamido)benzoic acid, TFA salt] the figure was < 5 nM; with `COC1CCN(c2cccc3c2CCN(C(=O)C2CCN(C(=N)N)CC2)C3C(=O)Nc2ccc(C(=O)O)cc2)CC1` (stereo not drawn) [Example 24, 4-(2-(1-carbamimidoylpiperidine-4-carbonyl)-5-(4-methoxypiperidin-1-yl)-1,2,3,4-tetrahydroisoquinoline-1-carboxamido)benzoic acid, bis-TFA salt], 5.68 nM. For `N=C(N)N1CCc2nc(C(=O)N3CCc4c(Br)cccc4C3C(=O)Nc3ccc(C(=O)O)cc3)sc2C1` (stereo not drawn) [Example 1, 4-(5-bromo-2-(5-carbamimidoyl-4,5,6,7-tetrahydrothiazolo[5,4-c]pyridine-2-carbonyl)-1,2,3,4-tetrahydroisoquinoline-1-carboxamido)benzoic acid, TFA Salt] the value was 90.6 nM. For `CN1CCN(c2cccc3c2CCN(C(=O)CC2CCN(C(=N)N)CC2)[C@H]3C(=O)Nc2ccc(C(=O)O)cc2)C(=O)C1` [Example 19, (R)-4-(2-(2-(1-carbamimidoylpiperidin-4-yl)acetyl)-5-(4-methyl-2-oxopiperazin-1-yl)-1,2,3,4-tetrahydroisoquinoline-1-carboxamido)benzoic acid, bis-HCl Salt] the value was 382 nM.

For the origin of these results see patent US9315519B2, “Guanidine substituted tetrahydroisoquinoline compounds as factor XIa inhibitors” (BRISTOL-MYERS SQUIBB COMPANY, priority 2012, dated 2016).
